# Where “and” joins values, the source holds several entries; their conditions need not be identical. Equal values may be shown once.
# Tested on: epidermal equivalents
# Assay: Triglyceride production in living skin samples (epidermal equivalents, MatTek), HPTLC analysis
# Format: cell-based
# Settings: for net intensity (HPTLC, triglycerides): about 0.1 percent fatty acid, epidermal equivalents cultured for three days, triglycerides extracted in chloroform/methanol (2:1)
# Description: A set of living skin samples, epidermal equivalents, obtained from MatTek, is tested with a sample of about 0.1 percent palmitoleic acid and about 0.1 percent oleic acid. A media is prepared of a transwell membrane at the air/liquid interface and is cultured for three days. At the end of the incubation period, each skin square is homogenized and its triglycerides extracted in chloroform/methanol (2:1). This is followed by HPTLC analysis. […] After one day of application it is surprising to find the increase in triglyceride concentration in the epidermal equivalents treated with palmitoleic acid. […] The net intensity of oleic acid is 859. In contrast, palmitoleic acid has a net intensity of 1324 and 1212, an average of 1268 net intensity.
Compound,"net intensity (HPTLC, triglycerides)","average net intensity (HPTLC, triglycerides) (about 0.1 percent, average of two values)","increase in triglyceride production (about 0.1 percent, epidermal equivalents, HPTLC)","effect on triglyceride production (in words) (epidermal equivalents, HPTLC)"
CCCCCC/C=C\CCCCCCCC(=O)O [palmitoleic acid],1324 and 1212,1268,~400%,time and dose-dependent increase in triglyceride production
"CCCCCCCC/C=C\CCCCCCCC(=O)O [oleic acid, reference compound]",859,,,little effect
